Drawing on ChEMBL document CHEMBL1157539, “Thousands of chemical starting points for antimalarial lead identification” (Nature, 2010), this text covers XC50 for 86 compounds.

The subject of this assay is Plasmodium falciparum. Put plainly: GSK_TCMDC: Inhibition of Plasmodium falciparum 3D7 in whole erythrocytes, using parasite LDH activity as an index of growth. It is filed as functional, organism-based.

Take `N=C(N)Nc1ccc(CCc2ccc(NC(=N)N)cc2)cc1`: where the note is “Plasmodium falciparum, 3D7”, the XC50 amounted to 289 nM.
Under “Plasmodium falciparum, 3D7”, `CCCOc1cccc(C(=O)N[C@@H](Cc2ccccc2)[C@H](O)CNCc2ccccc2OC)c1` yielded an XC50 of 883 nM.
In turn, `Cc1cc(C(=O)Nc2ccc3c(c2)CCN3C2CCN(Cc3ccc4nsnc4c3)C2)no1` (configuration not stated) showed an XC50 (Plasmodium falciparum, 3D7) of 641 nM.
Where the note is “Plasmodium falciparum, 3D7”, `CN(C)CCOc1ccc(-c2cc(-c3ccnc(N)n3)c(-c3ccc(Cl)c(O)c3)o2)cc1` displayed an XC50 of 978 nM.
In turn, `CN1CCN(CCCN(Cc2ccc(-c3cccc(CNCc4ccc5c(c4)OCO5)c3)cc2)C(=O)Nc2ccccc2)CC1` gave an XC50 (Plasmodium falciparum, 3D7) of 183 nM.
Compound `COc1cc2nc(SCC(C)C)n(CCCn3ccnc3)c(=N)c2cc1OC` had an XC50 (Plasmodium falciparum, 3D7) of 610 nM.
`O=C(/C=C/c1ccc(Cl)c(Cl)c1)NC1CCC(CN2CCC(c3coc4ccccc34)CC2)CC1` (configuration not stated) gave an XC50 (Plasmodium falciparum, 3D7) of 826 nM.
On the same count and under the same terms, with `CC(=O)N(C)c1cccc(C(=O)Nc2ccc(-c3cccc(-c4nc5cc(C(F)(F)F)ccc5[nH]4)c3)cc2)c1` the figure was 724 nM; with `Cc1oc(-c2ccc(Cl)cc2)cc1C(=O)NCCC1CCN(CCCCCNC(=O)/C=C/c2ccc(Cl)c(Cl)c2)CC1`, 446 nM; with `CCOC(=O)c1cc(C(=O)OC)c2ccccn12`, 223 nM.
For the compound `Cc1nc(O)c2c(ccc3ccc(CNc4ccc(C(=O)N[C@@H](CCC(=O)O)C(=O)O)c(F)c4)cc32)n1`, the XC50 (Plasmodium falciparum, 3D7) stood at 402 nM.
Still for that read-out and setting: next, `CC(=NNC(S)=NC(c1ccccc1)c1ccccc1)c1ccccn1`: 896 nM; `CCOc1ccc(N(CC)S(=O)(=O)c2cc(Br)cc3c2N(C(=O)C2CC2)CC3)cc1`: 134 nM; `NC1=NC(c2ccccc2)(c2ccccc2)C(=O)N1CCOc1ccccc1`: 844 nM.
`Cc1cc(N2CCCN(CC3CCCCC3)CC2)nc(Nc2ccc(Br)cc2)n1` registered an XC50 (Plasmodium falciparum, 3D7) of 943 nM.
As for `COc1c(C2CCN(CCCCNC(=O)c3cc(-c4ccc(C#N)cc4)n[nH]3)CC2)ccc2c1CCCC2`, for the setting “Plasmodium falciparum, 3D7”, the XC50 stood at 1160 nM.
In the case of `COc1ccc(Nc2cc(C)nc(NCc3ccc4c(c3)OCO4)n2)cc1`, the XC50 (Plasmodium falciparum, 3D7) is 766 nM.
Consider `CCN(CC)CCCN1CCN(C(=O)c2cccc(-c3noc(C(F)(F)F)n3)c2)CC1`, for which the XC50 (Plasmodium falciparum, 3D7) came to 154 nM.
For the compound `O=C(/C=C/c1ccc(Cl)c(Cl)c1)NCCCCCN1CCC(CCNC(=O)c2snnc2-c2ccccc2)CC1`, the XC50 (Plasmodium falciparum, 3D7) amounted to 822 nM.
On the same count and under the same terms, next, `O=C(c1cccs1)N1N=C(c2cccs2)CC1c1cccc([N+](=O)[O-])c1` (configuration not stated): 820 nM.
For the compound `CNC(=O)c1cnc(Nc2ccc3[nH]c(=O)[nH]c3c2)nc1Nc1cccc(OC(C)C)c1`, for the setting “Plasmodium falciparum, 3D7”, the XC50 was 926 nM.
For the setting “Plasmodium falciparum, 3D7”, `O=S(=O)(NCCN1CCCC1)c1cccc(-c2ccc(CNCc3ccccc3)cc2)c1` had an XC50 of 1000 nM.
For `c1ccc(-c2ccc(-c3csc(Nc4ccncc4)n3)cc2)cc1`, the XC50 (Plasmodium falciparum, 3D7) was determined as 1010 nM.
Compound `CC(C)CC(=O)N1CCNC[C@@H]1C(=O)NC1CC1` yielded an XC50 (Plasmodium falciparum, 3D7) of 1090 nM.
The compound `Cc1nc(-c2ccc(-c3ccc(C(=O)Nc4ccc5c(c4)C4(CCNCC4)CO5)cc3)c(C)c2)no1` had an XC50 (Plasmodium falciparum, 3D7) of 858 nM.
Compound `CCC1=C(CC2NCCc3cc(OC)c(OC)cc32)CC2c3cc(OC)c(OC)cc3CCN2C1` (configuration not stated) [DIHYDROEMETINE] had an XC50 (Plasmodium falciparum, 3D7) of 312 nM.
The same measure, in the same setting: next, `COc1ccc2nc3cc(Cl)ccc3c(NCCO)c2c1`: 800 nM; `CN1CCC(NCc2ccc(S(=O)(=O)Nc3ccc(Oc4cccc(Cl)c4)cc3)cc2)CC1`: 735 nM.
Regarding `CN(C)c1ccnc2ccc(NC(=O)Nc3ccnc4ccccc34)cc12`, the XC50 (Plasmodium falciparum, 3D7) was determined as 133 nM.
As for `N/C(=N\c1cccc(Cc2ccccc2)n1)NCc1ccccc1`, where the note is “Plasmodium falciparum, 3D7”, the XC50 was found to be 863 nM.
Under “Plasmodium falciparum, 3D7”, `COc1ccc(-c2ccc(Nc3cccc(S(=O)(=O)CCN4CCC(CCN(C)C)CC4)c3)nc2)cn1` came in with an XC50 of 1120 nM.
Under “Plasmodium falciparum, 3D7”, `N#Cc1ccc2c(c1)CCN(CCC1CCC(NC(=O)/C=C/c3ccc(F)c4ccccc34)CC1)CC2` (configuration not stated) had an XC50 of 844 nM.
The same measure, in the same setting: with `COc1cc(NC(=O)Nc2ccc(Br)cc2C(=O)Nc2ccc(Br)cc2)cc(OC)c1OC` the figure was 761 nM.
`Cc1cnc(NCC2CCCCC2)nc1NCC(=O)Nc1ccccc1` gave an XC50 (Plasmodium falciparum, 3D7) of 714 nM.
On to `O=C(NCCN1CCCCC1)c1ccc(CNC(=O)c2ccc(O)c(-c3ccc(Cl)c(Cl)c3)c2)cc1`, for which, for the setting “Plasmodium falciparum, 3D7”, the XC50 turned out to be 900 nM.
`CN1CCC(C(=O)N(Cc2ccc(-c3ccc(CNCCc4ccc(S(C)(=O)=O)cc4)cn3)cc2)Cc2cccc(F)c2)CC1` came in with an XC50 (Plasmodium falciparum, 3D7) of 706 nM.
Same read-out and setting: next, `Cc1cccc2nc(-c3cccc(-c4ccc(NC(=O)c5cnn6cccnc56)cc4)c3)[nH]c12`: 212 nM; `COc1ccc2nccc([C@@H](O)CN3CCC(NCc4nc5cc(F)c(F)cc5[nH]4)CC3)c2c1`: 533 nM; `Cc1cccc2nc(-c3cccc(-c4ccc(NC(=O)COC(C)C)cc4)c3)[nH]c12`: 1190 nM.
With `Cc1cc(N)c2cc(NC(=O)CCC(=O)Nc3ccc4nc(C)cc(N)c4c3)ccc2n1`, the XC50 (Plasmodium falciparum, 3D7) was found to be 954 nM.
Compound `COc1ccc(CN2CCCN(Cc3cccc(C(=O)Nc4ccc(C)c(F)c4)c3)CC2)cc1` showed an XC50 (Plasmodium falciparum, 3D7) of 1310 nM.
On the same count and under the same terms, next, `CCCCNC(=O)c1cc(CNC2CCCCC2)ccc1-c1cccc(CNCc2ccc(-c3ccccc3)cc2)c1`: 531 nM.
Turning to `Cc1nc(C)c(CC(=O)Nc2cccc(-c3cccc(-c4nc5cc(C(F)(F)F)ccc5[nH]4)c3)c2)s1`, under “Plasmodium falciparum, 3D7”, the XC50 was 827 nM.
In turn, `COc1ccc(NC(=O)[C@H](C)Nc2cc(C)nc(NCC3CCCCC3)n2)cc1` had an XC50 (Plasmodium falciparum, 3D7) of 1280 nM.
The same measure, in the same setting: with `NCCCCc1c(-c2ccc(Cl)c(Cl)c2)[nH]c2ccc(Cl)cc12` the figure was 912 nM; with `Cc1ccccc1C1CCN(c2ccc(NC(=O)c3ccc(Cl)nc3)cc2)CC1`, 1030 nM.
`CC(=O)Nc1ccc(S(=O)(=O)NC2=NC(=N)N(OCc3ccc(Cl)c(Cl)c3)C(C)(C)N2)cc1`: the XC50 (Plasmodium falciparum, 3D7) was determined as 33.9 nM.
Turning to `CCCCn1c(Sc2ccc(C#N)c([N+](=O)[O-])c2)nnc1-c1cc(OC)cc(OC)c1`, the XC50 (Plasmodium falciparum, 3D7) is 824 nM.
Take `COc1cccc(C(=O)C2CC2CN(C)CCC(O)c2ccc(Cl)c(Cl)c2)c1` (configuration not stated): the XC50 (Plasmodium falciparum, 3D7) is 756 nM.
The same measure, in the same setting: with `NC1=NC(c2ccccc2)N(c2ccccc2)C(N)=N1` (configuration not stated) the figure was 294 nM.
As for `COc1cc(Cc2cnc(N)nc2N)ccc1OCc1ccc(-c2csnn2)cc1`, for the setting “Plasmodium falciparum, 3D7”, the XC50 amounted to 628 nM.
In the case of `CC(C)COc1ccc(Cl)cc1Cc1ccc(-c2nc3c(F)cccc3[nH]2)o1`, where the note is “Plasmodium falciparum, 3D7”, the XC50 was determined as 806 nM.
Same read-out and setting: with `CCN1CCc2nc3ccccc3c(C(=O)Nc3ccc(C#N)cc3)c2C1` the figure was 780 nM; with `NC1=NC2(CCCC2)C(c2ccc(Cl)c(Cl)c2)C(N)=N1` (configuration not stated), 987 nM; with `Cn1cncc1C(=O)Nc1cccc(-c2ccc(-c3nc4ccccc4[nH]3)s2)c1`, 796 nM.
As for `COc1ccc(CN2CCCC(N3CC4(OC3=O)c3ccccc3-c3ccccc34)C2)c(O)c1` (configuration not stated), where the note is “Plasmodium falciparum, 3D7”, the XC50 is 873 nM.
With `O=C(Nc1ccccc1)Nc1cccc(-c2ccc(-c3nc4cc(C(F)(F)F)ccc4[nH]3)cc2)c1`, the XC50 (Plasmodium falciparum, 3D7) amounted to 231 nM.
`O=C(c1ccc(-c2ccc(-c3nc4cc(F)ccc4[nH]3)cc2)cc1)N1CCCCC1CN1CCC(O)C1` (configuration not stated): under “Plasmodium falciparum, 3D7”, the XC50 is 368 nM.
With `Cc1ccc2[nH]cc(C3CCN(CC4CCC(NC(=O)/C=C/c5ccc(Cl)c(Cl)c5)CC4)CC3)c2c1` (configuration not stated), the XC50 turned out to be 552 nM. The same compound had an XC50 (Plasmodium falciparum, 3D7) of 840 nM.
As for `CCN(CC)CCNC(=O)c1ccc(NC(=O)c2oc3c(Cl)cccc3c2C)cc1`, the XC50 (Plasmodium falciparum, 3D7) came out at 703 nM.
On to `NCC1CCCN1Cc1cccc(-c2ccc(-c3nc4cc(C(F)(F)F)ccc4[nH]3)s2)c1` (configuration not stated), for which, where the note is “Plasmodium falciparum, 3D7”, the XC50 stood at 748 nM.
Same read-out and setting: with `CN1CCCN(c2ccnc3cc4c(cc23)N(C(=O)c2ccccc2Cl)CC4)CC1` the figure was 1180 nM; with `COc1ccc(C(=O)C2CC2CN2CC=C(c3c[nH]c4cccc(Br)c34)CC2)cc1` (configuration not stated), 935 nM; with `Cc1ccc(C(=O)Nc2ccc(F)cc2)cc1-c1nc(NC2CC(C)(C)NC(C)(C)C2)nc2c1ccc(=O)n2-c1c(F)cccc1F`, 684 nM.
Still for that read-out and setting: next, `CC(C)(C)CCN1CCC(CNC(=O)c2cc(-c3cccc(Cl)c3)cs2)C1` (configuration not stated): 819 nM; `COCCOCCOCCn1ccc2c3c(N)nc(N)nc3ccc21`: 263 nM.
For the compound `COCCNCc1ccc(-c2ccc(CN(C(=O)Nc3ccccc3)C3CCN(Cc4ccccc4)CC3)cc2)cc1`, the XC50 (Plasmodium falciparum, 3D7) was 746 nM.
Compound `CN(c1ccc(NC(=O)CCOc2ccccc2)cc1)C1CCN(Cc2cccc(O)c2)CC1` came in with an XC50 (Plasmodium falciparum, 3D7) of 1320 nM.
For `Cc1nc2c(Nc3nc(-c4ccncc4)cs3)ncnc2n1-c1ccccc1Cl`, the XC50 (Plasmodium falciparum, 3D7) is 176 nM.
In turn, `O=C(Nc1ccc(C(F)(F)F)cc1)c1ccc(NCCCN2CCCCCC2)c([N+](=O)[O-])c1` came in with an XC50 (Plasmodium falciparum, 3D7) of 315 nM.
`CN(C)Cc1cccc2nc(-c3csc(Cc4cc(Cl)ccc4OCc4ccccc4)n3)[nH]c12`: the XC50 (Plasmodium falciparum, 3D7) is 1120 nM.
`c1ccc(C(c2cccs2)N2CCN(Cc3ccc(OCCCN4CCCCC4)cc3)CC2)cc1` (configuration not stated) registered an XC50 (Plasmodium falciparum, 3D7) of 1230 nM.
Turning to `Cc1cc([N+](=O)[O-])ccc1N1CCN(CCCCNC(=O)c2ccc(NC(=O)c3ccc(Cl)cc3)cc2)CC1`, the XC50 (Plasmodium falciparum, 3D7) stood at 887 nM.
Same read-out and setting: next, `O=C(NCC1CC1)C1Cc2c([nH]c3ccc(Br)cc23)C2(CCN(CCc3ccccc3)CC2)N1` (configuration not stated): 908 nM; `OC(CNCc1ccccc1Oc1ccccc1)c1cccc(C(F)(F)F)c1` (configuration not stated): 713 nM.
`O=C(Nc1ccc(Cl)cc1)c1cccc(CN2CCCN(Cc3cccc(O)c3)CC2)c1`: the XC50 (Plasmodium falciparum, 3D7) was 957 nM.
As for `CCCNCc1ccc(-c2ccc(CN(Cc3cccs3)C(=O)C3CCN(C)CC3)cc2)nc1`, the XC50 (Plasmodium falciparum, 3D7) came out at 665 nM.
`COc1c(F)cc(CC(C)NCC(O)c2cccc(Cl)c2)cc1F` (configuration not stated) returned an XC50 (Plasmodium falciparum, 3D7) of 1160 nM.
Compound `Cc1nnc(-c2ccc3ccccc3c2)c2cn(-c3cccc([N+](=O)[O-])c3)nc12` gave an XC50 (Plasmodium falciparum, 3D7) of 988 nM.
As to `O=C(NCc1ccco1)c1ccc(CN2CCN(C(c3ccccc3)c3ccccc3)CC2)cc1`, the XC50 (Plasmodium falciparum, 3D7) came out at 789 nM.
Consider `O=S(=O)(NCCN1CCCC1)c1ccc(-c2ccc(CNCc3ccsc3)cc2)cc1F`, for which the XC50 (Plasmodium falciparum, 3D7) turned out to be 810 nM.
In turn, `CS(=O)(=O)N1CC2(CCN(CCC(NC(=S)Nc3ccccc3)c3ccc(Cl)c(Cl)c3)CC2)c2ccccc21` (configuration not stated) registered an XC50 (Plasmodium falciparum, 3D7) of 826 nM.
On to `O=C(NCc1ccc(F)cc1)c1ccc(N2CCN(c3ccncc3)CC2)cn1`, for which, where the note is “Plasmodium falciparum, 3D7”, the XC50 worked out at 886 nM.
With `CCCc1cc(Cc2cnc(N)nc2N)ccc1OCCCCCC(=O)O`, the XC50 (Plasmodium falciparum, 3D7) stood at 577 nM.
With `CC(C)(C)c1ccc(OCCCON2C(=N)N=C(N)NC2(C)C)c(C(C)(C)C)c1`, the XC50 (Plasmodium falciparum, 3D7) was 3.2 nM.
The same measure, in the same setting: with `CN(C)c1ccc(-c2ccc(C(=O)NC3CCN(Cc4ccc(F)cc4)CC3)s2)cc1` the figure was 1050 nM.
